Results taken from patent US20100179188A1, “NITROXIDE RADICAL AS TREATMENT FOR NEURODEGENERATION” (Office of Technology Transfer, NIH, priority 2007, published 2010).

Assays:
[1] = target: T1, IRP1 (Mus musculus, UniProt P28271); test: Gel-shift of IRP1 in wild type and IRP2−/− mouse embryonic fibroblasts after Tempo1 or DFO and washout; format: cell-based; parameters: Embryonic fibroblasts of 13-day old embryos were isolated from wild type, IRP1−/− mice and IRP2−/− mice; endogenous in cells; host or cells: mouse embryonic fibroblasts (wild type and IRP2−/−); settings: wild type and IRP2−/− mouse embryonic fibroblasts treated 16 hours
T1 sequence (P28271 1-889): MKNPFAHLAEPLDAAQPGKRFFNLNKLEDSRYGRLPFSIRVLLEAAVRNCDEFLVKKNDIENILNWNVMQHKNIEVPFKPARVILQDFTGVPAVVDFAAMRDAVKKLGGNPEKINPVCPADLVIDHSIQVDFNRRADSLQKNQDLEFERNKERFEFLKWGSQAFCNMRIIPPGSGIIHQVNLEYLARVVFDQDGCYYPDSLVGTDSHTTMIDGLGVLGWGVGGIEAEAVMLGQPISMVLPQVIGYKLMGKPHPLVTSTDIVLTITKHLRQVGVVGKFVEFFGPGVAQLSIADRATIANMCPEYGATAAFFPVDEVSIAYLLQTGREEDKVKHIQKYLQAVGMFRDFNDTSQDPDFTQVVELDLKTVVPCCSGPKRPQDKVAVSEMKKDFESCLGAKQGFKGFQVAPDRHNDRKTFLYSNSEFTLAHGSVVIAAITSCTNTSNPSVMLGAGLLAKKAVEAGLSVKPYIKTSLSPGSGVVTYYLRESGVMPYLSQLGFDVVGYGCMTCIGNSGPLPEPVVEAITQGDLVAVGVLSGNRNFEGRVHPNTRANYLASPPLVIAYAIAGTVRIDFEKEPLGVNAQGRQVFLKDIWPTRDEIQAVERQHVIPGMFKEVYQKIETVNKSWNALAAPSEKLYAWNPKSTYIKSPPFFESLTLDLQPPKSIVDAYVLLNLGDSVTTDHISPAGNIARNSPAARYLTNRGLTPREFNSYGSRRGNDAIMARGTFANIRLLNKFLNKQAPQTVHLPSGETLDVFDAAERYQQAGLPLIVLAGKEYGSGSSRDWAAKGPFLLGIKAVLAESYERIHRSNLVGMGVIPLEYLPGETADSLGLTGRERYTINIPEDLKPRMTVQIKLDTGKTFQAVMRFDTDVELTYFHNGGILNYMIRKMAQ
Experimental: (§1) Cells: Embryonic fibroblasts of 13-day old embryos were isolated from wild type, IRP1−/− mice and IRP2−/− mice as described in LaVaute et al. supra. Myc-tagged HEK 293 Tet-on cell line, in which IRP2 expression was inducible, was prepared and cultured as described Bourdon et al., Blood Cells Mol Dis, 31, 247-255 (2003). Erythroblasts were harvested from bone marrow and purified as described in Cooperman et al., Blood, 106, 1084-1091 (2005).
(§2) RNA mobility shift assays: Gel retardation assays were performed as described in Meyron-Holtz et al., EMBO J, 23, 386-395 (2004). Tissue lysates were prepared in an anaerobic chamber as described above in oxygen-depleted lysis buffer containing 10 mM HEPES (pH 7.2), 3 mM MgC12, 40 mM KCl, 5% glycerol, 0.2% Nonidet P-40, 5 mM DTT, 1 mM AEBSF, 10 μg/ml. Leupeptin and complete TM EDTA free protease inhibitor cocktail (Roche Applied Science, Indiana). Lysate (x μl) containing 10 μg of total protein was added to (12.5−x) μl of bandshift buffer containing 25 mM Tris-HCl (pH 7.5) and 40 mM KCl. The samples were incubated for 5 min at room temperature (RT) with 12.5 μl of a reaction cocktail containing 20% glycerol, 0.2 U/μl Super RNAsine (Ambion, Tex.), 0.6 μg/μl yeast t-RNA, 5 mM DTT and 20 nM 32P-labelled IRE from human ferritin H-chain gene in 25 mM Tris-HCl (pH 7.5) and 40 mM KCl. A measure of 20 μl of this reaction mixture was loaded into a 10% acrylamide/TBE gel, which was run at 200 V for 2.15 h, and then the gel was fixed, dried and exposed for autoradiography.
(§3) To determine whether the effect of Tempo1 on IRP1 activity was kinetically consistent with oxidative disassembly of the iron sulfur cluster, the effect of Tempo1 on aconitase activity was compared to that of the iron chelator, deferiprone (DFO), which activates IRE-binding activity of IRP1 by limiting de novo synthesis and repair of the iron sulfur cluster in IRP1. […] Recovery of aconitase activity was assessed in wild type and IRP2−/− cells.

[2] = target: T2, cytosolic aconitase (Mus musculus, UniProt P28271); test: In-gel aconitase assay in mouse embryonic fibroblast lysates, cytosolic aconitase; format: cell-based; settings: assessed 8 hours after removal; mouse embryonic fibroblasts treated 16 hours
T2 construct: Embryonic fibroblasts of 13-day old embryos were isolated from wild type, IRP1−/− mice and IRP2−/− mice; endogenous in cells; host or cells: mouse embryonic fibroblasts (wild type and IRP2−/−)
T2 sequence (P28271 1-889): T1 sequence (P28271 1-889)
Experimental: as §1
Aconitase assay: Aconitase activity gels for human lysates were performed as described in Tong et al., infra, and aconitase activity gels for mouse lysate were performed with the following modifications. The gel was composed of a separating gel containing 6% acrylamide, 132 mM Tris base, 66 mM borate, 3.6 mM citrate, and a stacking gel containing 4% acrylamide, 66 mM Tris base, 33 mM borate, 3.6 mM citrate. The running buffer contains 25 mM Tris pH 8.3, 96 mM glycine, and 3.6 mM citrate. Electrophoresis were carried out at 170 V at 4° C. Spectral aconitase activity was measured by following the method of Fillebeen et al., infra, using cis-aconitate as the substrate.
To confirm that nitroxide radicals activate IRP1 binding by disassembly of the iron-sulfur cluster, we performed in-gel aconitase assays to determine whether Tempo1 decreased the activity of cytosolic aconitase. […] The band that represented the cytosolic aconitase was readily identified by its absence in lysates from IRP1−/− cells. […]
as §3

[3] = target: T1, IRP1; test: Gel-shift of brain lysates treated with β-mercaptoethanol; format: biochemical, mice; parameters: Lysates made from various brain regions of IRP2−/− mice; from tissue; host or cells: mouse brain (cerebellum, forebrain, brain-stem) lysates; settings: FIG. 7a
Experimental: Tissue and lysate preparation: Animals were euthanized and tissues were frozen in liquid nitrogen immediately after harvesting, and stored at −80° C. under argon. Experiments were performed on tissues that were pulverized in liquid N2-cooled mortars in an anaerobic chamber, and then lysed in lysis buffer that was deaerated by cyclic freezethaw and air-removal with argon. Nuclei and debris were removed by centrifugation. Preparations of lysates for assays of IRP1 activity, western blotting, carbonyl assay and protein analysis were performed anaerobically.
RNA mobility shift assays: Gel retardation assays were performed as described in Meyron-Holtz et al., EMBO J, 23, 386-395 (2004). Tissue lysates were prepared in an anaerobic chamber as described above in oxygen-depleted lysis buffer containing 10 mM HEPES (pH 7.2), 3 mM MgC12, 40 mM KCl, 5% glycerol, 0.2% Nonidet P-40, 5 mM DTT, 1 mM AEBSF, 10 μg/ml. Leupeptin and complete TM EDTA free protease inhibitor cocktail (Roche Applied Science, Indiana). Lysate (x μl) containing 10 μg of total protein was added to (12.5−x) μl of bandshift buffer containing 25 mM Tris-HCl (pH 7.5) and 40 mM KCl. […]

[4] = target: T1, IRP1; test: Gel-shift of erythroblasts treated with β-mercaptoethanol; format: biochemical; parameters: Lysates made from various brain regions of IRP2−/− mice; from tissue; host or cells: mouse brain (cerebellum, forebrain, brain-stem) lysates; settings: erythroblasts from wild type mice, high concentrations
Experimental: as §1
as §2, with “A measure of 20 μl of this reaction mixture was loaded into a 10% acrylamide/TBE gel, which was run at 200 V for 2.15 h, and then the gel was fixed, dried and exposed for autoradiography.” left out

| Structure (SMILES) | IRE-binding activity of IRP1 [1] | recovery of cytosolic aconitase activity [2] | IRE binding activity recruited [3] | additional IRE binding activity of IRP1 [4] |
| --- | --- | --- | --- | --- |
| Cc1c(O)c(=O)ccn1C [DFO, deferiprone, reference compound] | activated | little recovery |  |  |
| OCCS [β-mercaptoethanol] |  |  | significant increases | did not activate additional |
